Laboratory results as given in the kinase profiling compilation of Christmann-Franck et al. (2016).

What was measured:
ERBB4 (human) = ERBB4 (human) (UniProt Q15303)
GCK (human) = GCK (human) (UniProt Q12851)
MAPKAPK3 (human) = MAPKAPK3 (human) (UniProt Q16644)
[1] = tested on: ABL1 (human), P00519 [F317I]; test: KINOMEscan competition binding; conditions: compound 10.0 µM
[2] = tested on: ABL1 (human), P00519 [F317L]; test: KINOMEscan competition binding; conditions: compound 10.0 µM
[3] = tested on: ABL1 (human), P00519 [H396P]; test: KINOMEscan competition binding; conditions: compound 10.0 µM
ABL1 (human) = ABL1 (human) (UniProt P00519); test: KINOMEscan competition binding; conditions: compound 10.0 µM
MYLK3 (human) = MYLK3 (human) (UniProt Q32MK0)
PIK3CG (human) = PIK3CG (human) (UniProt P48736); test: KINOMEscan competition binding; conditions: compound 10.0 µM
PIK3CA (human) = PIK3CA (human) (UniProt P42336); test: KINOMEscan competition binding; conditions: compound 10.0 µM
[4] = tested on: ABL1 (human), P00519 [E255K]; test: KINOMEscan competition binding; conditions: compound 10.0 µM
[5] = tested on: EGFR (human), P00533 [G719C]; test: KINOMEscan competition binding; conditions: compound 10.0 µM
[6] = tested on: KIT (human), P10721 [V559D/V654A]; test: KINOMEscan competition binding; conditions: compound 10.0 µM
[7] = tested on: EGFR (human), P00533 [G719S]; test: KINOMEscan competition binding; conditions: compound 10.0 µM
[8] = tested on: EGFR (human), P00533 [746-750 del]; test: KINOMEscan competition binding; conditions: compound 10.0 µM
[9] = tested on: EGFR (human), P00533 [L861Q]; test: KINOMEscan competition binding; conditions: compound 10.0 µM
[10] = tested on: EGFR (human), P00533 [P753S; 747-752 del]; test: KINOMEscan competition binding; conditions: compound 10.0 µM
[11] = tested on: ABL1 (human), P00519 [Y253F]; test: KINOMEscan competition binding; conditions: compound 10.0 µM
MARK2 (human) = MARK2 (human) (UniProt Q7KZI7); test: KINOMEscan competition binding; conditions: compound 10.0 µM
[12] = tested on: PIK3CA (human), P42336 [H1047Y]; test: KINOMEscan competition binding; conditions: compound 10.0 µM
MTOR (human) = MTOR (human) (UniProt P42345)

Chain of GCK (human) (Q12851 whole entry, looked up): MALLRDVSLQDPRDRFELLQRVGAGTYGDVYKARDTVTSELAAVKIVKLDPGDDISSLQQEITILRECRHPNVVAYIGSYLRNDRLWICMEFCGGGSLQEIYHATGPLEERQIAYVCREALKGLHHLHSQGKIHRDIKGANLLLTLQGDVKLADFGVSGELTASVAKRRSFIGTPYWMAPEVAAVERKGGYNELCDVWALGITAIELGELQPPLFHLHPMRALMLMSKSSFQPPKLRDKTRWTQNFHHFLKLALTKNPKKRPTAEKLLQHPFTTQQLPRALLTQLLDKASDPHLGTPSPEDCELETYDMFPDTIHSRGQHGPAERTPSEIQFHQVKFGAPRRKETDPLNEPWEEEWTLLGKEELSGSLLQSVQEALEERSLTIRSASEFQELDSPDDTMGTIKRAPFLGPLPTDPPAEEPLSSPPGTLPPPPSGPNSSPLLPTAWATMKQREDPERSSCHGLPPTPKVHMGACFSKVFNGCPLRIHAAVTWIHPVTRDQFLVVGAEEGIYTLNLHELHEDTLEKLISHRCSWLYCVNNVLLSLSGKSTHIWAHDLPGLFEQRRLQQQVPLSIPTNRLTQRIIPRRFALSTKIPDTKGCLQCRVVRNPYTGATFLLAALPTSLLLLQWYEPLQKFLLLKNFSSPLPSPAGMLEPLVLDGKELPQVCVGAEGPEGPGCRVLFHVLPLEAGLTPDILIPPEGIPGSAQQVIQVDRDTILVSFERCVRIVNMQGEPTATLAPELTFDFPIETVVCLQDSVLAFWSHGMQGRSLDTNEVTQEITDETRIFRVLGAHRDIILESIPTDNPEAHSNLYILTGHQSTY
Chain of MAPKAPK3 (human) (Q16644 whole entry, looked up): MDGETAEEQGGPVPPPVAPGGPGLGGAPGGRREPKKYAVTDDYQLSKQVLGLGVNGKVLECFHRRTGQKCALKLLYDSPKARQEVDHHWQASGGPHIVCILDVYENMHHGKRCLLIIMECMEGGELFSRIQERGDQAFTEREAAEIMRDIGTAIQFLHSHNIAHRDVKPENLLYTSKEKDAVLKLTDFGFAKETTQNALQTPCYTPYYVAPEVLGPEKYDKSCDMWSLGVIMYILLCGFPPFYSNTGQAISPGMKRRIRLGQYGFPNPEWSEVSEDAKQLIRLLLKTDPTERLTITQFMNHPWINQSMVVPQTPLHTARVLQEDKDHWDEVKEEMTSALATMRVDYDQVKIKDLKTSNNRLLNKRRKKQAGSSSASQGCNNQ
Chain of ERBB4 (human) (Q15303 whole entry, looked up): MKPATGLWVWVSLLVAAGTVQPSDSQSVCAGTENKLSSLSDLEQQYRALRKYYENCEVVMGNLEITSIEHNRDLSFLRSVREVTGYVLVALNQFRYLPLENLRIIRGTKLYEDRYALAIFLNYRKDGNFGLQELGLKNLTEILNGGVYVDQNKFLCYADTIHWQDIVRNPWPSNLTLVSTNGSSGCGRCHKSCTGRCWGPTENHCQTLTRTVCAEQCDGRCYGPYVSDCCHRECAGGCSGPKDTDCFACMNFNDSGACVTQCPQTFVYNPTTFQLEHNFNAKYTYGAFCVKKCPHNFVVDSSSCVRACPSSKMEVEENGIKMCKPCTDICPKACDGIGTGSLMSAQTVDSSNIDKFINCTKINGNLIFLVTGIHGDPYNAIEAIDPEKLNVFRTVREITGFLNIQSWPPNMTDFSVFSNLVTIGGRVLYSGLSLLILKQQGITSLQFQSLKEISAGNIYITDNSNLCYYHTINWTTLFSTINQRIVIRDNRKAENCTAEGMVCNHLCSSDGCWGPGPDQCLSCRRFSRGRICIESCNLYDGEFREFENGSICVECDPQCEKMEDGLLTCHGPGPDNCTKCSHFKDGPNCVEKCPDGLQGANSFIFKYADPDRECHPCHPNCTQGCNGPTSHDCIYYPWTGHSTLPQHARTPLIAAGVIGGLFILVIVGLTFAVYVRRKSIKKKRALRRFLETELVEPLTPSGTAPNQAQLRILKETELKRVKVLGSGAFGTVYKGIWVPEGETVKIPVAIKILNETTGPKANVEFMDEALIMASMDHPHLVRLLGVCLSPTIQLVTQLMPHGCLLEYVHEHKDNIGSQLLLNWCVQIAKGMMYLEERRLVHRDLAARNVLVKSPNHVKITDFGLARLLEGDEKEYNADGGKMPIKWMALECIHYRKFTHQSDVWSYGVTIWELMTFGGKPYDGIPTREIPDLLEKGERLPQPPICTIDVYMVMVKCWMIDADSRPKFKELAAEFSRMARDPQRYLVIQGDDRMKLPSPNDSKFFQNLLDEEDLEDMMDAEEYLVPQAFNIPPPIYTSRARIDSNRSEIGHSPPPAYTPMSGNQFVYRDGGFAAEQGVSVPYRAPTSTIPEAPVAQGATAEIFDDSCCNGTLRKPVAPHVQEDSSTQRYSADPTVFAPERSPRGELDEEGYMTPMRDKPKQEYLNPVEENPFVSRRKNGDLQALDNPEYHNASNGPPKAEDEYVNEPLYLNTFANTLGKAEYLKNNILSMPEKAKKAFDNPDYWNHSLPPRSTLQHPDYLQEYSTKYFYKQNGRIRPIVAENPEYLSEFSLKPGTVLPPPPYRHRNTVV
Chain of MYLK3 (human) (Q32MK0 whole entry, looked up): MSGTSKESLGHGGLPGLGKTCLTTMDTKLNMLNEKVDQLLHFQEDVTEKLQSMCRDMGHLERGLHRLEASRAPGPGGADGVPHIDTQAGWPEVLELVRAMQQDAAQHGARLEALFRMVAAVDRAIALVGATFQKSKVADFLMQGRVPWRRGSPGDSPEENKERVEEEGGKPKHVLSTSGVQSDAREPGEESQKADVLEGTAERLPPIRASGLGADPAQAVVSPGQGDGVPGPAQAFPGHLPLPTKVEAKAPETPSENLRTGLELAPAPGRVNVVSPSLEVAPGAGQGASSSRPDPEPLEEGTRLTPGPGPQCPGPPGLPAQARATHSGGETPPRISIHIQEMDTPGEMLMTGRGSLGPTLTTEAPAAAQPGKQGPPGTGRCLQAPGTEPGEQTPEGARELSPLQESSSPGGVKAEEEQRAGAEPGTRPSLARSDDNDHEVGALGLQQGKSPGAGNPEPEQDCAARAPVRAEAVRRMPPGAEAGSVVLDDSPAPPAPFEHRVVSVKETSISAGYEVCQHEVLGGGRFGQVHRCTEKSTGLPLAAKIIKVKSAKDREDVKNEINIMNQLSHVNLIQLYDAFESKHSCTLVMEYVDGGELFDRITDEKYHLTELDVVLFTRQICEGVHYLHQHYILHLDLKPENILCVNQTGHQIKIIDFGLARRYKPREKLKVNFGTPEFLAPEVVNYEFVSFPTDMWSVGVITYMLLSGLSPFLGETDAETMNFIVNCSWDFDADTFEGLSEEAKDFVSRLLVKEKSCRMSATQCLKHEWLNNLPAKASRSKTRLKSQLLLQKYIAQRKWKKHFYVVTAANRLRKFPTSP
Chain of PIK3CG (human) (P48736 whole entry, looked up): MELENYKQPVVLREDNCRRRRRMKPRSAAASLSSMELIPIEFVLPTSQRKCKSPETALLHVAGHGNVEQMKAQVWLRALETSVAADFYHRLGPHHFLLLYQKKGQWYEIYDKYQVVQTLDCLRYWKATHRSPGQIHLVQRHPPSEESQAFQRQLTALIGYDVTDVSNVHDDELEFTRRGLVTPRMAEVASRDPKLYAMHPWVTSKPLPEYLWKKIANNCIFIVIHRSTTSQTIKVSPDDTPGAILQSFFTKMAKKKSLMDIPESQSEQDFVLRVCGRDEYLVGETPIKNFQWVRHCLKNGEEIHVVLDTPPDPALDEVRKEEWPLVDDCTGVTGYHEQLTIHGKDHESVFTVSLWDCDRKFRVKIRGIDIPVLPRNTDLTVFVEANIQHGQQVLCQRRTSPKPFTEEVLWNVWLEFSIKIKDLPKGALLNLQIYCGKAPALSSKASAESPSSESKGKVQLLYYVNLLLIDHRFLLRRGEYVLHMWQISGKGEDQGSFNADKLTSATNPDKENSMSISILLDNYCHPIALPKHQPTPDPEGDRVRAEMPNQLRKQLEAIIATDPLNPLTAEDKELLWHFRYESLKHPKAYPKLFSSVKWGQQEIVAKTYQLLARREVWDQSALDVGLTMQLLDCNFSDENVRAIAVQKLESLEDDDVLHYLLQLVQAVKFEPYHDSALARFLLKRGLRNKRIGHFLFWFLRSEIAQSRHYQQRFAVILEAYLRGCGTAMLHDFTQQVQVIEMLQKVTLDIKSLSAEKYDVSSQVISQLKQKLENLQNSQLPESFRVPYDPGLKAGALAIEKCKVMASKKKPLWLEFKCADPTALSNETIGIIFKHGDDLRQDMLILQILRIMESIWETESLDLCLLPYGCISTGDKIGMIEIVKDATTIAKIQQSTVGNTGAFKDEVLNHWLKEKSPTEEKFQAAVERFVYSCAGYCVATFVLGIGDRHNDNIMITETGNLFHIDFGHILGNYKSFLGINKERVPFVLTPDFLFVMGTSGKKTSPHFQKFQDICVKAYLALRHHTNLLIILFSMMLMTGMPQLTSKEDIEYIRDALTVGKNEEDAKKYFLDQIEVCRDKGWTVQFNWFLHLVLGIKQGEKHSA

Row | SMILES | per cent of control (ERBB4 (human); compound 1.0 µM) | per cent of control (ERBB4 (human); compound 10.0 µM) | per cent of control (GCK (human); compound 1.0 µM) | per cent of control (GCK (human); compound 10.0 µM) | per cent of control (MAPKAPK3 (human); compound 1.0 µM) | per cent of control (MAPKAPK3 (human); compound 10.0 µM) | kinase still bound, per cent of control (PIK3CG (human)) | kinase still bound, per cent of control (PIK3CA (human)) | kinase still bound, per cent of control [4] | kinase still bound, per cent of control [5] | kinase still bound, per cent of control [6] | kinase still bound, per cent of control [7] | kinase still bound, per cent of control [8] | kinase still bound, per cent of control [9] | kinase still bound, per cent of control [10] | kinase still bound, per cent of control [11] | kinase still bound, per cent of control (MARK2 (human)) | kinase still bound, per cent of control [12] | other results
1 | CCC(=O)N1CCN(c2ccc(-n3c(=O)ccc4cnc5ccc(-c6cnc7ccccc7c6)cc5c43)cc2C(F)(F)F)CC1 | 110% | 111% | 69% | 25% | 113% | 105% | – | – | – | – | – | – | – | – | – | – | – | – | kinase still bound, per cent of control [1]: 100%; kinase still bound, per cent of control [2]: 100%; kinase still bound, per cent of control [3]: 68%; kinase still bound, per cent of control (ABL1 (human)): 60%
2 | COc1ccc(-c2ccc3c(N4CCOCC4)nc(N4C[C@@H](C)O[C@@H](C)C4)nc3n2)cc1CO | – | – | – | – | – | – | 23% | 2.5% | 100% | 100% | 100% | 100% | 100% | 83% | 100% | 100% | 94% | 3.2% | per cent of control (MYLK3 (human); compound 1.0 µM): 82%; per cent of control (MYLK3 (human); compound 10.0 µM): 104%
3 | COC(=O)Nc1ccc(-c2nc(N3CCOCC3)c3cnn(C4CCN(C(=O)OC)CC4)c3n2)cc1 | 91% | 108% | 94% | 105% | 109% | 101% | 78% | 5.4% | 100% | 100% | 100% | 95% | 100% | 100% | 86% | 90% | 100% | 7.8% | IC50 (MTOR (human)): 0.0158 µM
